According to patent US8603527B2, “Pharmaceutical formulations of a substituted diaminopurine” (Signal Pharmaceuticals, LLC, priority 2010, dated 2013):

How the values were obtained:
[1] = Relative bioavailability and food effect crossover study of formulated capsules in healthy male subjects; format: in vivo, human; conditions: Treatments A-D, single 100 mg dose
Excerpt: Methods: This was an open-label, randomized, 4-treatment, 4-period, 4-sequence crossover study in healthy subjects to evaluate relative bioavailability and food effect on Compound I capsule formulations. The study consisted of a screening phase (Day −21 to Day −2) for subject eligibility, a baseline/admission phase (Day −1) for each period, treatment and assessment phase (Days 1 to Day 8) for each period, and a follow-up visit (Day 15±2 days from the last dose). During each period, subjects were domiciled at the study site from Day −1 through Day 2 (discharged on Day 3 after PK sampling and safety evaluations). Subjects then visited the study center on Days 4, 6, and 8 of each period for PK sampling and safety evaluations. Between periods, there was a minimum of 10 days of washout from the prior dose to the next dose (no more than 14 days).
Sixteen (16) male subjects were be randomized to one of the following 4 treatment sequences (4 subjects per sequence) on Day 1 of Period 1:
Subjects started fasting from the night of Day −1 for a minimum of 10 hours prior to dosing. On Day 1 of each period, subjects received their randomized treatment of Compound I at approximately 8 AM. […] Approximately 5 mL of blood sample was collected on days 1-8 for PK analysis. Subjects received standardized meals scheduled at approximately the same time during confinement in each period of the study.

healthy volunteers = assay: Safety and tolerability of ascending multiple oral doses in healthy volunteers; format: in vivo, human
Description: Study Design: This study was a randomized, double-blind, placebo-controlled, ascending-dose trial to evaluate the safety, tolerability and pharmacokinetics (PK) of multiple oral doses of Compound I. Subjects were enrolled into 1 of the 4 cohorts, 10 subjects per cohort (active:placebo=8:2). Subjects received a multiple oral dose of 25, 50, 100, or 200 mg unformulated Compound I in a capsule, or matching placebo, once daily (QD) for 14 days.
Assessments: Safety and tolerability were assessed by adverse event (AE) monitoring, clinical laboratory testing, vital sign measurement, 12-lead ECG measurement, concomitant medication assessment, and physical examination. Blood and urine samples were collected to assess the PK profile of Compound I and the S-cis isomer of Compound I. Blood samples (˜5 mL) for plasma PK analysis were collected in K2-EDTA vacutainer tubes to yield approximately 2 mL of plasma at each of the following time points: (i) Day 1: before dosing, and 0.25, 0.5, 1, 1.5, 2, 2.5, 3, 4, 6, 8, 10, 12, 16, and 24 hours after dosing; (ii) Day 3 to Day 9: before dosing; (iii) Day 10: before dosing, and 0.25, 0.5, 1, 1.5, 2, 2.5, 3, 4, 6, 8, 10, 12, and 16 hours after dosing; (iv) Day 11 to Day 13: before dosing; (v) Day 14: before dosing, and 0.25, 0.5, 1, 1.5, 2, 2.5, 3, 4, 6, 8, 10, 12, 16, 24, 48, 72, 96, 120, 144, and 168 hours after dosing. Urine samples for the PK analysis were collected as a single block at: (i) Day 1: before dosing (spot collection), 0 to 8, 8 to 16, and 16 to 24 hours after dosing; and (ii) Day 14: 0 to 8, 8 to 16, and 16 to 24 hours after dosing. Both plasma and urine concentrations of Compound I and its S-cis isomer were measured using validated liquid chromatography-tandem mass spectrometry (LC/MS/MS).
Data Analysis: Safety data were summarized using descriptive statistics by treatment. PK parameters for Compound I and its S-cis isomer were calculated using non-compartmental analysis using WinNonlin (Version 5.0.1 or greater; Pharsight Corporation, Mountain View, Calif.). Dose proportionality and dose independence were evaluated by visual inspection. Intra-subject variability was assessed using an ANOVA model using data from Days 10 and 14.

O[C@H]1CC[C@H](Nc2ncc3nc(Nc4c(F)cc(F)cc4F)n([C@H]4CCOC4)c3n2)CC1 [Compound I, 4-((9-((3S)-tetrahydro-3-furanyl)-8-((2,4,6-trifluorophenyl)amino)-9H-purin-2-yl)amino)-trans-cyclohexanol]
AUCt, Intra-Subject CV % [1]: 16.1% | AUC∞, Intra-Subject CV % [1]: 15.3% | Cmax, Intra-Subject CV % [1]: 36.8% | Dermatitis contact, number of subjects reporting TEAE (healthy volunteers; 25 mg QD for 14 days (N = 8)): 0 n (%) | Dizziness, number of subjects reporting TEAE (healthy volunteers; 25 mg QD for 14 days (N = 8)): 0 n (%) | Flatulence, number of subjects reporting TEAE (healthy volunteers; 25 mg QD for 14 days (N = 8)): 0 n (%) | Headache, E = number of TEAE (healthy volunteers; 25 mg QD for 14 days (N = 8)): 1 | Headache, number of subjects reporting TEAE (healthy volunteers; 25 mg QD for 14 days (N = 8)): 1 (12.5) n (%) | Nasal congestion, E = number of TEAE (healthy volunteers; 25 mg QD for 14 days (N = 8)): 1 | Nasal congestion, number of subjects reporting TEAE (healthy volunteers; 25 mg QD for 14 days (N = 8)): 1 (12.5) n (%) | Nausea, E = number of TEAE (healthy volunteers; 25 mg QD for 14 days (N = 8)): 1 | Nausea, number of subjects reporting TEAE (healthy volunteers; 25 mg QD for 14 days (N = 8)): 1 (12.5) n (%) | Pharyngolaryngeal pain, number of subjects reporting TEAE (healthy volunteers; 25 mg QD for 14 days (N = 8)): 0 n (%) | Rhinitis, number of subjects reporting TEAE (healthy volunteers; 25 mg QD for 14 days (N = 8)): 0 n (%) | Total TEAEs, E = number of TEAE (healthy volunteers; 25 mg QD for 14 days (N = 8)): 6 | Total TEAEs, number of subjects reporting TEAE (healthy volunteers; 25 mg QD for 14 days (N = 8)): 3 (37.5) n (%) | Dermatitis contact, E = number of TEAE (healthy volunteers; 50 mg QD for 14 days (N = 8)): 1 | Dermatitis contact, number of subjects reporting TEAE (healthy volunteers; 50 mg QD for 14 days (N = 8)): 1 (12.5) n (%) | Dizziness, number of subjects reporting TEAE (healthy volunteers; 50 mg QD for 14 days (N = 8)): 0 n (%) | Flatulence, E = number of TEAE (healthy volunteers; 50 mg QD for 14 days (N = 8)): 4 | Flatulence, number of subjects reporting TEAE (healthy volunteers; 50 mg QD for 14 days (N = 8)): 2 (25.0) n (%) | Headache, E = number of TEAE (healthy volunteers; 50 mg QD for 14 days (N = 8)): 2 | Headache, number of subjects reporting TEAE (healthy volunteers; 50 mg QD for 14 days (N = 8)): 2 (25.0) n (%) | Nasal congestion, number of subjects reporting TEAE (healthy volunteers; 50 mg QD for 14 days (N = 8)): 0 n (%) | Nausea, number of subjects reporting TEAE (healthy volunteers; 50 mg QD for 14 days (N = 8)): 0 n (%) | Pharyngolaryngeal pain, number of subjects reporting TEAE (healthy volunteers; 50 mg QD for 14 days (N = 8)): 0 n (%) | Rhinitis, E = number of TEAE (healthy volunteers; 50 mg QD for 14 days (N = 8)): 1 | Rhinitis, number of subjects reporting TEAE (healthy volunteers; 50 mg QD for 14 days (N = 8)): 1 (12.5) n (%) | Total TEAEs, E = number of TEAE (healthy volunteers; 50 mg QD for 14 days (N = 8)): 20 | Total TEAEs, number of subjects reporting TEAE (healthy volunteers; 50 mg QD for 14 days (N = 8)): 6 (75.0) n (%) | Dermatitis contact, number of subjects reporting TEAE (healthy volunteers; 100 mg QD for 14 days (N = 8)): 0 n (%) | Dizziness, E = number of TEAE (healthy volunteers; 100 mg QD for 14 days (N = 8)): 2 | Dizziness, number of subjects reporting TEAE (healthy volunteers; 100 mg QD for 14 days (N = 8)): 2 (25.0) n (%) | Flatulence, number of subjects reporting TEAE (healthy volunteers; 100 mg QD for 14 days (N = 8)): 0 n (%) | Headache, E = number of TEAE (healthy volunteers; 100 mg QD for 14 days (N = 8)): 3 | Headache, number of subjects reporting TEAE (healthy volunteers; 100 mg QD for 14 days (N = 8)): 3 (37.5) n (%) | Nasal congestion, number of subjects reporting TEAE (healthy volunteers; 100 mg QD for 14 days (N = 8)): 0 n (%) | Nausea, number of subjects reporting TEAE (healthy volunteers; 100 mg QD for 14 days (N = 8)): 0 n (%) | Pharyngolaryngeal pain, E = number of TEAE (healthy volunteers; 100 mg QD for 14 days (N = 8)): 1 | Pharyngolaryngeal pain, number of subjects reporting TEAE (healthy volunteers; 100 mg QD for 14 days (N = 8)): 1 (12.5) n (%) | Rhinitis, E = number of TEAE (healthy volunteers; 100 mg QD for 14 days (N = 8)): 1 | Rhinitis, number of subjects reporting TEAE (healthy volunteers; 100 mg QD for 14 days (N = 8)): 1 (12.5) n (%) | Total TEAEs, E = number of TEAE (healthy volunteers; 100 mg QD for 14 days (N = 8)): 10 | Total TEAEs, number of subjects reporting TEAE (healthy volunteers; 100 mg QD for 14 days (N = 8)): 4 (50.0) n (%) | Dermatitis contact, E = number of TEAE (healthy volunteers; 200 mg QD for 14 days (N = 8)): 1 | Dermatitis contact, number of subjects reporting TEAE (healthy volunteers; 200 mg QD for 14 days (N = 8)): 1 (12.5) n (%) | Dizziness, E = number of TEAE (healthy volunteers; 200 mg QD for 14 days (N = 8)): 1 | Dizziness, number of subjects reporting TEAE (healthy volunteers; 200 mg QD for 14 days (N = 8)): 1 (12.5) n (%) | Flatulence, number of subjects reporting TEAE (healthy volunteers; 200 mg QD for 14 days (N = 8)): 0 n (%) | Headache, number of subjects reporting TEAE (healthy volunteers; 200 mg QD for 14 days (N = 8)): 0 n (%) | Nasal congestion, E = number of TEAE (healthy volunteers; 200 mg QD for 14 days (N = 8)): 1 | Nasal congestion, number of subjects reporting TEAE (healthy volunteers; 200 mg QD for 14 days (N = 8)): 1 (12.5) n (%) | Nausea, E = number of TEAE (healthy volunteers; 200 mg QD for 14 days (N = 8)): 3 | Nausea, number of subjects reporting TEAE (healthy volunteers; 200 mg QD for 14 days (N = 8)): 1 (12.5) n (%) | Pharyngolaryngeal pain, E = number of TEAE (healthy volunteers; 200 mg QD for 14 days (N = 8)): 1 | Pharyngolaryngeal pain, number of subjects reporting TEAE (healthy volunteers; 200 mg QD for 14 days (N = 8)): 1 (12.5) n (%) | Rhinitis, number of subjects reporting TEAE (healthy volunteers; 200 mg QD for 14 days (N = 8)): 0 n (%) | Total TEAEs, E = number of TEAE (healthy volunteers; 200 mg QD for 14 days (N = 8)): 15 | Total TEAEs, number of subjects reporting TEAE (healthy volunteers; 200 mg QD for 14 days (N = 8)): 3 (37.5) n (%) | serious or severe TEAE (healthy volunteers; 25-200 mg QD for 14 days): no serious or severe TEAE was reported | subjects reporting treatment-emergent adverse events (healthy volunteers; active, 25-200 mg QD for 14 days): 16/32 | tolerability (healthy volunteers; doses up to 200 mg QD for 14 days): well tolerated
